Results on 32 compounds are retold here after patent US20230123334A1, “AMINO LIPID COMPOUND, PREPARATION METHOD THEREFOR, AND APPLICATION THEREOF” (SHENZHEN SHENXIN BIOTECHNOLOGY CO., LTD., priority 2020, published 2023).

Test [1] has as its system HEK293 cells. Nature of the test: Preliminary screening as mRNA vectors, EGFP mRNA transfection of HEK293 cells. It counts as cell-based. Particulars: HEK293 cells, 96-well plates, EGFP mRNA 50 ng per well; percentage of GFP fluorescent cells relative to total number of cells (Hoechst). The method, boiled down:
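HEK293 cells in DMEM plus 10% FBS transfected in 96-well format with 50 ng EGFP mRNA per well; Lipofectamine2000 served as positive control. Read-out is the percentage of GFP-fluorescent cells among total cells, counted by Hoechst nuclear stain.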

The test system of test [2] is HEK293 cells. The test is described as follows: Preliminary screening as DNA vectors, GFP transfection of HEK293 cells. The class given is cell-based. The settings on record: HEK293 cells; lipid/DOPE liposome with 75 ng plasmid DNA (psin-EGFP-IRES-Puro); number of cells expressing GFP divided by total number of nuclei (Hoechst). The method, boiled down: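 HEK293 cells in DMEM/10% FBS transfected with 75 ng EGFP plasmid per well complexed with amino lipid/DOPE liposomes in pH 5.6 sodium acetate. Hoechst nuclear stain added 20-24 h post-transfection, then cells cultured another 20-24 h. Confocal imaging gives GFP-positive cells as % of total nuclei.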

`CCCCCCCCCCCCCCCCNc1nc(NCCCCCCCCC)nc(NCCN2CCN(C)CC2)n1` [Compound N9N16D5]: the “Absolute mRNA transfection efficiency in HEK293 cells” value (shortened to “Absolute mRNA transfection efficiency”) in the test on HEK293 cells [1] was 0.0%. The “Absolute DNA transfection efficiency in HEK293 cells” value (“Absolute DNA transfection efficiency” below) with HEK293 cells [2] is reported as 0.0%.
As to `CCCCCCCCCCCCCCCCNc1nc(NCCCCCCCCC)nc(NCCCN(C)C)n1` [Compound N9N16D6], in the test on HEK293 cells [1], the “Absolute mRNA transfection efficiency” value was determined as 6.2%. Moreover, the “Absolute DNA transfection efficiency” value in the test on HEK293 cells [2] was found to be 2.2%.
For `CCCCCCCCCCCCCCCCNc1nc(NCCCCCCCCC)nc(NCCN(CC)CC)n1` [Compound N9N16D7], the “Absolute mRNA transfection efficiency” value with HEK293 cells [1] turned out to be 1.1%. Moreover, the “Absolute DNA transfection efficiency” value with HEK293 cells [2] is given as 0.0%.
For `CCCCCCCCCCCCCCCCNc1nc(NCCCCCCCCC)nc(NCCCN2CCOCC2)n1` [Compound N9N16D8], in that order: 0.0% and 1.8%.
In the case of `CCCCCCCCCCCCCCCCNc1nc(NCCCCCCCCC)nc(NCCCN2CCN(C)CC2)n1` [Compound N9N16D9], the “Absolute mRNA transfection efficiency” value with HEK293 cells [1] turned out to be 1.1%. For the same compound, in the test with HEK293 cells [2], the “Absolute DNA transfection efficiency” value was determined as 0.0%.
The like results for `CCCCCCCCCCCCCCCCNc1nc(NCCCCCCCCC)nc(NCC2CCN(C)CC2)n1` [Compound N9N16D10] were, in that order, 1.2% and 4.8%.
Consider `CCCCCCCCCCCCCCCCCCNc1nc(NCCCCCCCCC)nc(NCCN(C)C)n1` [Compound N9N18D1], for which the “Absolute mRNA transfection efficiency” value with HEK293 cells [1] is 5.1%. Further, the “Absolute DNA transfection efficiency” value with HEK293 cells [2] was found to be 4.0%.
Take `CCCCCCCCCCCCCCCCCCNc1nc(NCCCCCCCCC)nc(NCCN2CCOCC2)n1` [Compound N9N18D2]: the “Absolute mRNA transfection efficiency” value with HEK293 cells [1] is reported as 25.3%. Moreover, in the test with HEK293 cells [2], the “Absolute DNA transfection efficiency” value stood at 3.6%.
The like results for `CCCCCCCCCCCCCCCCCCNc1nc(NCCCCCCCCC)nc(NCCN2CCCC2)n1` [Compound N9N18D3] were, in that order, 4.7% and 2.0%.
For `CCCCCCCCCCCCCCCCCCNc1nc(NCCCCCCCCC)nc(NCCN2CCCCC2)n1` [Compound N9N18D4], in that order: 1.3% and 19.9%.
The like results for `CCCCCCCCCCCCCCCCCCNc1nc(NCCCCCCCCC)nc(NCCN2CCN(C)CC2)n1` [Compound N9N18D5] were, in that order, 0.9% and 0.0%.
As for `CCCCCCCCCCCCCCCCCCNc1nc(NCCCCCCCCC)nc(NCCCN(C)C)n1` [Compound N9N18D6], the “Absolute mRNA transfection efficiency” value with HEK293 cells [1] stood at 2.5%. In addition, the “Absolute DNA transfection efficiency” value in the test with HEK293 cells [2] amounted to 2.2%.
As to `CCCCCCCCCCCCCCCCCCNc1nc(NCCCCCCCCC)nc(NCCN(CC)CC)n1` [Compound N9N18D7], the “Absolute mRNA transfection efficiency” value in the test with HEK293 cells [1] worked out at 0.6%. Further, in the test on HEK293 cells [2], the “Absolute DNA transfection efficiency” value came out at 3.0%.
For `CCCCCCCCCCCCCCCCCCNc1nc(NCCCCCCCCC)nc(NCCCN2CCOCC2)n1` [Compound N9N18D8], in that order: 0.3% and 1.4%.
Regarding `CCCCCCCCCCCCCCCCCCNc1nc(NCCCCCCCCC)nc(NCCCN2CCN(C)CC2)n1` [Compound N9N18D9], the “Absolute mRNA transfection efficiency” value in the test on HEK293 cells [1] came out at 3.1%. Further, the “Absolute DNA transfection efficiency” value in the test with HEK293 cells [2] is reported as 0.3%.
For `CCCCCCCCCCCCCCCCCCNc1nc(NCCCCCCCCC)nc(NCC2CCN(C)CC2)n1` [Compound N9N18D10], in that order: 1.9% and 2.6%.
Take `CCCCCCCCCCCNc1nc(NCCCCCCCCCCC)nc(NCCN(C)C)n1` [Compound N11N11D1]: the “Absolute mRNA transfection efficiency” value in the test on HEK293 cells [1] was 4.3%. For the same compound, the “Absolute DNA transfection efficiency” value in the test on HEK293 cells [2] stood at 0.9%.
As for `CCCCCCCCCCCNc1nc(NCCCCCCCCCCC)nc(NCCN2CCOCC2)n1` [Compound N11N11D2], the “Absolute mRNA transfection efficiency” value in the test with HEK293 cells [1] is given as 1.4%. Besides, the “Absolute DNA transfection efficiency” value in the test with HEK293 cells [2] is given as 0.0%.
As to `CCCCCCCCCCCNc1nc(NCCCCCCCCCCC)nc(NCCN2CCCC2)n1` [Compound N11N11D3], the “Absolute mRNA transfection efficiency” value in the test with HEK293 cells [1] amounted to 1.4%. The “Absolute DNA transfection efficiency” value in the test on HEK293 cells [2] was 1.8%.
For `CCCCCCCCCCCNc1nc(NCCCCCCCCCCC)nc(NCCN2CCCCC2)n1` [Compound N11N11D4], in that order: 4.1% and 0.0%.
On to `CCCCCCCCCCCNc1nc(NCCCCCCCCCCC)nc(NCCN2CCN(C)CC2)n1` [Compound N11N11D5], for which, in the test with HEK293 cells [1], the “Absolute mRNA transfection efficiency” value came to 0.4%. In addition, the “Absolute DNA transfection efficiency” value in the test with HEK293 cells [2] was 0.9%.
Take `CCCCCCCCCCCNc1nc(NCCCCCCCCCCC)nc(NCCCN(C)C)n1` [Compound N11N11D6]: in the test on HEK293 cells [1], the “Absolute mRNA transfection efficiency” value was 1.1%. In addition, the “Absolute DNA transfection efficiency” value with HEK293 cells [2] was found to be 0.7%.
On to `CCCCCCCCCCCNc1nc(NCCCCCCCCCCC)nc(NCCN(CC)CC)n1` [Compound N11N11D7], for which the “Absolute mRNA transfection efficiency” value in the test with HEK293 cells [1] was 5.5%. Further, in the test on HEK293 cells [2], the “Absolute DNA transfection efficiency” value amounted to 0.6%.
The like results for `CCCCCCCCCCCNc1nc(NCCCCCCCCCCC)nc(NCCCN2CCOCC2)n1` [Compound N11N11D8] were, in that order, 1.5% and 0.0%.
Consider `CCCCCCCCCCCNc1nc(NCCCCCCCCCCC)nc(NCCCN2CCN(C)CC2)n1` [Compound N11N11D9], for which the “Absolute mRNA transfection efficiency” value in the test with HEK293 cells [1] was 0.3%. Besides, the “Absolute DNA transfection efficiency” value in the test on HEK293 cells [2] was determined as 0.0%.
`CCCCCCCCCCCNc1nc(NCCCCCCCCCCC)nc(NCC2CCN(C)CC2)n1` [Compound N11N11D10]: the “Absolute mRNA transfection efficiency” value with HEK293 cells [1] was found to be 1.2%. Besides, in the test with HEK293 cells [2], the “Absolute DNA transfection efficiency” value is listed as 0.5%.
As to `CCCCCCCCCCCCNc1nc(NCCCCCCCCCCC)nc(NCCN(C)C)n1` [Compound N11N12D1], in the test with HEK293 cells [1], the “Absolute mRNA transfection efficiency” value came out at 0.3%. For the same compound, in the test on HEK293 cells [2], the “Absolute DNA transfection efficiency” value stood at 0.0%.
Take `CCCCCCCCCCCCNc1nc(NCCCCCCCCCCC)nc(NCCN2CCOCC2)n1` [Compound N11N12D2]: the “Absolute mRNA transfection efficiency” value in the test with HEK293 cells [1] was 0.5%. In addition, the “Absolute DNA transfection efficiency” value in the test with HEK293 cells [2] turned out to be 0.5%.
`CCCCCCCCCCCCNc1nc(NCCCCCCCCCCC)nc(NCCN2CCCC2)n1` [Compound N11N12D3]: the “Absolute mRNA transfection efficiency” value in the test with HEK293 cells [1] is on record as 2.7%. The “Absolute DNA transfection efficiency” value with HEK293 cells [2] is reported as 1.9%.
Take `CCCCCCCCCCCCNc1nc(NCCCCCCCCCCC)nc(NCCN2CCCCC2)n1` [Compound N11N12D4]: the “Absolute mRNA transfection efficiency” value in the test with HEK293 cells [1] is 1.2%. Also, the “Absolute DNA transfection efficiency” value in the test on HEK293 cells [2] is reported as 0.0%.
For `CCCCCCCCCCCCNc1nc(NCCCCCCCCCCC)nc(NCCN2CCN(C)CC2)n1` [Compound N11N12D5], in that order: 8.0% and 0.0%.
On to `CCCCCCCCCCCCNc1nc(NCCCCCCCCCCC)nc(NCCCN(C)C)n1` [Compound N11N12D6], for which the “Absolute mRNA transfection efficiency” value in the test with HEK293 cells [1] was found to be 8.1%. Besides, in the test with HEK293 cells [2], the “Absolute DNA transfection efficiency” value is given as 0.5%.
